# Test results: patent US20250109127A1, “METHODS OF USE OF PHENOXYPROPYLAMINE COMPOUNDS TO TREAT DEPRESSION” (Minerva Neurosciences, Inc., priority 2013, published 2025)
# Several values for one entry are separate records, joined by “and”; a condition that tells them apart may be missing. Equal entries are not always repeated. Structures can show the parent of a compound that is named as a salt.
# System: norepinephrin release in the rat prefrontal cortex
# Experiment: Microdialysis: norepinephrine release in prefrontal cortex after I.P. administration
# Format: in vivo
# Conditions: for NOREPINEPHRIN in dialysate, individual animals / NOREPINEPHRIN in dialysate, MEAN: SON-117 0.1 mg/kg I.P.; for NOREPINEPHRIN in dialysate, individual animals: hydrochloride, 0.1 mg/kg; for NOREPINEPHRIN (% of respective basal) MEAN / NE concentrations in prefrontal cortex, significant slight increase: SON-117 0.3 mg/kg I.P.; for NOREPINEPHRIN (% of respective basal) MEAN: n = 8
# Method: The aim of the study was to evaluate, using microdialysis, the effects of an intraperitoneal (I.P.) administration in rats of three different doses of SON-117 on dopamine and its metabolites, serotonin and its metabolite (5-HIAA), and norepinephrine levels in prefrontal cortex.
# Thirty-two adult male Wistar rats were used for the whole study (4 groups of eight animals planned for the study, Table 1).
# Surgery was performed on rats weighing about 300 g at the beginning of the experiments. Rats were anaesthetized with Ketamine (50 mg/kg) & Xylazine (15 mg/kg) by intramuscular administration. The animals were placed in a stereotaxic apparatus in the flat-skull position at a constant setting of −3.3 mm between ear bars and the incisor bar. The animals were treated with a local anesthesic (xylocaine 1%, Astra Zeneca) and an analgesic (Temgesic, from Schering Plough, 0.05 mg/kg, s.c.). A rostrocaudal midline incision was made with a lancet to expose the dorsal skull surface. The “stereotaxic zero” was defined by the Bregma in accordance with Paxinos and Watson's atlas (1986). A hole was drilled in the skull with a drill and the meninges were pierced with a sterile needle to implant a CMA12 guide cannula which later received the dialysis probe.
# Coordinates used for implanting guide cannula in prefrontal cortex from Bregma were anteroposterior 3.7 mm, mediolateral 0.8 mm, and dorsoventral −2 mm (top of the probe was at −5 mm). The guide cannula was fixed to the skull with two stainless steel screws (1.88 mm outside diameter) anchored. An application of dental cement was added. A plastic collar allowed each animal to be tethered to a Swivel assembly of the CMA 120 awake animal system. Following surgery, rats were kept in individual cages and allowed to recover for a minimum of 3-5 days before the experimentation. The rats were handled and put in plastic bowl for 10 min at least every day to habituate the animals to their new environment for the dialysis. An I.P. administration with saline was also performed every day.
# Dialysis probes (CMA12/3 mm, membrane, 20 kD cut-off, Carnegie Medicine, Stockholm, Sweden), were carefully washed before inserting into the guide cannula. The wash was performed with the artificial cerebrospinal fluid (aCSF) medium (NaCl 147 mM, KCl 2.7 mM, CaCl2 1.2 mM, MgCl2 0.85 mM) at room temperature. The dialysis system was then equilibrated at 20° C. at a perfusion rate of 1 μl/min with a Carnegie pump (CMA100). All catheters (FEP tubing, internal volume of 1.2 μl/10 cm, and tubing adaptors) used for microdialysis were treated in the same conditions.
# The probes duly prepared were inserted into the guide cannula and the CMA120 Swivel assembly secured to the animal using a plastic collar. Flow through the dialysis probe with aCSF was maintained at a rate of 1 μl/min during the whole experimentation. The first four fractions (corresponding to 2 hours) were discarded to avoid the effects of parenchymal disturbance and to ensure that an approximate steady-state level was reached. Fractions were then collected over a period of 8.5 h during which time the animals remained quiet. The dialysates were automatically collected with an autosampler (microfraction collector CMA 140, Carnegie Medicin) and stored at −80° C. until analysis. […] Perfusion was then maintained for 7 hours with aCSF. The dialysates (30 μl) were collected into 300 μl vials, transferred into dry ice and then kept frozen (−80° C.) until analysis. Frozen samples were shipped to a partner for analysis. At the end of the microdialysis study, a PBS with colored ink was perfused through the probe in order to visualize the dialyzed area.
# Catecholamine assay: Concentrations of dopamine, DOPAC, HVA, 5-HIAA, 5-HT, and norepinephrin were determined for each sample by HPLC coupled with electrochemical detection. […]
compound,measurement,setting,value
"Cc1nnc(-c2cc3c(OC[C@@H](O)CN4CCC(c5ccc(Cl)c(Cl)c5)CC4)cccc3o2)o1 [SON-117, (S)-1-(4-(3,4-dichlorophenyl)piperidino)-3-(2-(5-methyl-1,3,4-oxadiazol-2-yl)benzo(b)furan-4-yloxy)-2-propanol hydrochloride]","NOREPINEPHRIN in dialysate, individual animals",T1 h 30-T2 h,62.36 % of respective basal and 99.69 % of respective basal and 70.34 % of respective basal and 106.16 % of respective basal and 81.71 % of respective basal and 48.44 % of respective basal and 107.26 % of respective basal and 74.26 % of respective basal
same,"NOREPINEPHRIN in dialysate, MEAN",T1 h-T1 h 30,91.81 % of respective basal
same,"NOREPINEPHRIN in dialysate, individual animals",T1 h-T1 h 30,76.18 % of respective basal and 103.4 % of respective basal and 76.89 % of respective basal and 121.08 % of respective basal and 91.95 % of respective basal and 79.30 % of respective basal and 109.47 % of respective basal and 76.21 % of respective basal
same,"NOREPINEPHRIN in dialysate, MEAN",T2 h 30-T3 h,79.52 % of respective basal
same,"NOREPINEPHRIN in dialysate, individual animals",T2 h 30-T3 h,73.33 % of respective basal and 70.54 % of respective basal and 58.97 % of respective basal and 74.27 % of respective basal and 104.33 % of respective basal and 81.47 % of respective basal and 116.2 % of respective basal and 57.05 % of respective basal
same,"NOREPINEPHRIN in dialysate, MEAN",T2 h-T2 h 30,78.83 % of respective basal
same,"NOREPINEPHRIN in dialysate, individual animals",T2 h-T2 h 30,66.69 % of respective basal and 98.72 % of respective basal and 65.78 % of respective basal and 70.31 % of respective basal and 92.44 % of respective basal and 49.48 % of respective basal and 109.29 % of respective basal and 77.91 % of respective basal
same,"NOREPINEPHRIN in dialysate, MEAN",T3 h 30-T4 h,86.32 % of respective basal
same,"NOREPINEPHRIN in dialysate, individual animals",T3 h 30-T4 h,91.02 % of respective basal and 105.19 % of respective basal and 59.70 % of respective basal and 76.69 % of respective basal and 123.13 % of respective basal and 96.82 % of respective basal and 105.05 % of respective basal and 32.98 % of respective basal
same,"NOREPINEPHRIN in dialysate, MEAN",T3 h-T3 h 30,86.82 % of respective basal
same,"NOREPINEPHRIN in dialysate, individual animals",T3 h-T3 h 30,152.99 % of respective basal and 92.11 % of respective basal and 58.83 % of respective basal and 77.12 % of respective basal and 91.45 % of respective basal and 56.94 % of respective basal and 113.71 % of respective basal and 51.43 % of respective basal
same,"NOREPINEPHRIN in dialysate, MEAN",T4 h 30-T5 h,109.54 % of respective basal
same,"NOREPINEPHRIN in dialysate, individual animals",T4 h 30-T5 h,204.20 % of respective basal and 144.74 % of respective basal and 38.63 % of respective basal and 124.67 % of respective basal and 96.8 % of respective basal and 102.84 % of respective basal and 104.62 % of respective basal and 59.86 % of respective basal
same,"NOREPINEPHRIN in dialysate, MEAN",T4 h-T4 h 30,111.29 % of respective basal
same,"NOREPINEPHRIN in dialysate, individual animals",T4 h-T4 h 30,220.91 % of respective basal and 88.73 % of respective basal and 75.17 % of respective basal and 90.11 % of respective basal and 112.61 % of respective basal and 91.91 % of respective basal and 116.00 % of respective basal and 94.90 % of respective basal
same,"NOREPINEPHRIN in dialysate, MEAN",T5 h 30-T6 h,93.44 % of respective basal
same,"NOREPINEPHRIN in dialysate, individual animals",T5 h 30-T6 h,159.66 % of respective basal and 111.49 % of respective basal and 76.32 % of respective basal and 79.52 % of respective basal and 94.09 % of respective basal and 72.17 % of respective basal and 101.35 % of respective basal and 52.95 % of respective basal
same,"NOREPINEPHRIN in dialysate, MEAN",T5 h-T5 h 30,94.69 % of respective basal
same,"NOREPINEPHRIN in dialysate, individual animals",T5 h-T5 h 30,188.91 % of respective basal and 96.57 % of respective basal and 69.39 % of respective basal and 78.76 % of respective basal and 94.15 % of respective basal and 68.42 % of respective basal and 102.42 % of respective basal and 58.91 % of respective basal
same,"NOREPINEPHRIN in dialysate, MEAN",T6 h 30-T7 h,117.60 % of respective basal
same,"NOREPINEPHRIN in dialysate, MEAN",T6 h-T6 h 30,89.68 % of respective basal
same,"NOREPINEPHRIN in dialysate, individual animals",T6 h-T6 h 30,196.16 % of respective basal and 73.01 % of respective basal and 27.50 % of respective basal and 79.85 % of respective basal and 96.77 % of respective basal and 85.56 % of respective basal
same,"NOREPINEPHRIN in dialysate, MEAN",T-30 min-T0 (pre-dose),91.33 % of respective basal
same,"NOREPINEPHRIN in dialysate, MEAN",T-1 h 30-T-1 h (pre-dose),109.41 % of respective basal
same,"NOREPINEPHRIN in dialysate, MEAN",T-1 h-T-30 min (pre-dose),99.26 % of respective basal
same,"levels of NE compared to the citalopram treated group (two-way ANOVA, significant)","SON-117 0.1 mg/kg vs citalopram 10 mg/kg, at 4.5 h and 7 h",higher
same,NOREPINEPHRIN (% of respective basal) MEAN,T0-T30 min,109.06 % of respective basal
same,NOREPINEPHRIN (% of respective basal) MEAN,T30-T1 h,104.15 % of respective basal
same,NOREPINEPHRIN (% of respective basal) MEAN,T1 h 30-T2 h,95.77 % of respective basal
same,NOREPINEPHRIN (% of respective basal) MEAN,T1 h-T1 h 30,100.55 % of respective basal
same,NOREPINEPHRIN (% of respective basal) MEAN,T2 h 30-T3 h,106.82 % of respective basal
same,NOREPINEPHRIN (% of respective basal) MEAN,T2 h-T2 h 30,100.26 % of respective basal
same,NOREPINEPHRIN (% of respective basal) MEAN,T3 h 30-T4 h,128.69 % of respective basal
same,NOREPINEPHRIN (% of respective basal) MEAN,T3 h-T3 h 30,116.32 % of respective basal
same,NOREPINEPHRIN (% of respective basal) MEAN,T4 h 30-T5 h,125.81 % of respective basal
same,NOREPINEPHRIN (% of respective basal) MEAN,T4 h-T4 h 30,119.37 % of respective basal
same,NOREPINEPHRIN (% of respective basal) MEAN,T5 h 30-T6 h,135.41 % of respective basal
same,NOREPINEPHRIN (% of respective basal) MEAN,T5 h-T5 h 30,124.93 % of respective basal
same,NOREPINEPHRIN (% of respective basal) MEAN,T6 h 30-T7 h,140.96 % of respective basal
same,NOREPINEPHRIN (% of respective basal) MEAN,T6 h-T6 h 30,137.68 % of respective basal
same,NOREPINEPHRIN (% of respective basal) MEAN,T-30 min-T0 (before administration),94.72 % of respective basal
same,NOREPINEPHRIN (% of respective basal) MEAN,T-1 h 30-T-1 h (before administration),105.37 % of respective basal
same,NOREPINEPHRIN (% of respective basal) MEAN,T-1 h-T-30 min (before administration),99.90 % of respective basal
same,"NE concentrations in prefrontal cortex, significant slight increase",at 3.5 h,117%
same,"NE concentrations in prefrontal cortex, significant slight increase",from 4.5 h to 7 h,128%
same,"levels of NE compared to the citalopram treated group (two-way ANOVA, significant)","SON-117 0.3 mg/kg vs citalopram 10 mg/kg, at 3.5 h, 4 h, 4.5 h, 5 h, 5.5 h, 6 h and 7 h",higher
same,NE dialysate levels vs mean pre-administration value,SON-117 3 mg/kg IP,no statistically significant differences
same,"levels of NE compared to the citalopram treated group (two-way ANOVA, significant)","SON-117 3 mg/kg vs citalopram 10 mg/kg, at 1.5 h and 3.5 h",higher
same,"release of NE, maximum increase","SON-117, three doses tested, 7 h after administration",129%
